Measurements published in US20080234236A1, “REDUCTION OF ADVERSE EVENTS AFTER PERCUTANEOUS INTERVENTION BY USE OF A THROMBIN RECEPTOR ANTAGONIST” (priority 2007, published 2008).
Where “and” joins values, the source holds several entries; their conditions need not be identical. Equal entries are not always repeated.

Legend:
[1] = Laboratory safety tests and ECGs at doses and durations studied to date; format: in vivo; settings: doses and treatment duration studied to date
Excerpt: Overall, the study drug was generally well-tolerated.

[2] = Phase 2 study (P03573): bleeding in primary (PCI) cohort; format: in vivo, humans; settings: for non-TIMI bleeding: Arterial Access, patients (%) / non-TIMI bleeding: Contusion/Bruise, patients (%) / non-TIMI bleeding: Expistaxis, patients (%) / non-TIMI bleeding: GI, patients (%) / non-TIMI bleeding: Genitourinary, patients (%) / non-TIMI bleeding: Gingival, patients (%) / non-TIMI bleeding: Incidental Cuts, patients (%) / non-TIMI bleeding: Vascular Puncture, patients (%): primary PCI cohort; for Any bleed, patients (%) / TIMI Major bleeding, patients (%) / TIMI Major/Minor bleeding, patients (%) / non-TIMI bleeding (overall), patients (%) / TIMI Minor bleeding, patients (%): primary cohort (PCI), 60 days
Excerpt: The behavior of SCH 530348 in humans was further studied in a Phase 2 clinical development program. A key safety issue for SCH 530348 is the potential for incremental bleeding when added to standard of care with other oral antiplatelet therapies as well as parenteral antithrombotics. Therefore, a single Phase 2 study (P03573) was completed to evaluate the safety of SCH 530348 in patients at high risk of bleeding events, i.e., those patients undergoing non-emergent PCI (percutaneous coronary intervention). The goals of this Phase 2 study were to: • Evaluate the safety of SCH 530348 in addition to standard of care with respect to TIMI major and minor bleeding; and, • Observe the effects of SCH 530348 on major adverse cardiac events (“MACE”) in patients successfully completing an interventional procedure.
The primary endpoint (directed to evaluating safety) was the combined […] (“TIMI”) major and TIMI minor bleeding over sixty days in the primary evaluable cohort. Though the study was not powered to evaluate efficacy, a secondary endpoint (directed to evaluating efficacy) was the incidence of the composite of death and major adverse cardiac events (“MACE”) in the primary cohort. MACE includes myocardial infarction, urgent revascularization, and ischemia requiring hospitalization. Pharmacokinetics and pharmacodynamics were assessed at selected sites across the treatment groups. Other secondary endpoints included the incidence of TIMI major and minor bleeding in the secondary evaluable cohort i.e., those individuals who received the loading dose only.

[3] = Monkey bleeding liability study: surgical blood loss from femoral incision site; format: in vivo, cynomolgus monkeys; settings: anesthetized monkeys, single oral dose (SCH 530348 1 mg/kg, ASA 10 mg/kg, clopidogrel 2 mg/kg), mean ± SEM
Protocol: Any novel antiplatelet agent should optimally avoid incremental bleeding risk relative to the current standard of care. The bleeding risk of SCH 530348 was evaluated in anesthetized cynomoigus monkeys in which SCH 530348 was administered alone and along with aspirin and clopidogrel. Bleeding assessment was conducted following administration of single doses of SCH 530348 (1 mg/kg) and/or aspirin (10 mg/kg, ASA) and clopidogrel (2 mg/kg). Four groups of monkeys were dosed orally with either vehicle (the medium used to dissolve the drug, 0.4% methylcellulose) or drug (n=5-6/group): Group I: vehicle, Group II: SCH 530348 (1 mg/kg), Group III ASA (10 mg/kg) plus clopidogrel (2 mg/kg) and Group IV: combination of SCH 530348, ASA plus clopidogrel. Doses of various drugs used inhibited their respective platelet pathways by >90% as assessed by ex-vivo platelet aggregation in whole blood. Two hours after dosing, animals were anesthetized and bleeding risk was assessed by forearm template bleeding time and surgical blood loss from a femoral incision site.
Surgical blood loss was assessed as follows. The femoral artery and femoral vein on the hind leg of the anesthetized monkey were surgically isolated by cutting with a scalpel blade. […] A small sample was read in a spectrophotometer (at […]) and the volume of blood loss was derived from a standard curve. […]

platelets = assay: Arachidonic acid (AA)-induced platelet aggregation; format: in vivo, humans; settings: loading and maintenance doses
Protocol: A pharmacodynamic substudy incorporating light aggregometry was performed under stringent physiologic conditions and read by a central core laboratory. […] The term “therpeutically effective amount of a thrombin receptor antagonist” will be understood to mean that quantity of the thrombin receptor antagonist sufficient to achieve at least 80% inhibition of TRAP mediated platelet aggregation.
Similarly, there is no effect on arachidonic acid (“AA”) -induced platelet aggregation (see FIGS. 16 and 17) or collagen-induced platelet aggregation (see FIGS. 18-21).

With `CCOC(=O)N[C@@H]1CC[C@@H]2[C@@H](C1)C[C@H]1C(=O)O[C@H](C)[C@H]1[C@H]2/C=C/c1ccc(-c2cccc(F)c2)cn1.O=S(=O)(O)O` [SCH 530348, ethyl [(1R,3aR,4aR,6R,8aR,9S,9aS)-9-[(E)-2-[5-(3-fluorophenyl)-2-pyridinyl]ethenyl]-dodecahydro-1-methyl-3-oxonaphtho[2,3-c]furan-6-yl] carbamate bisulfate] as the compound, how does the “Changes in laboratory safety tests or ECGs” value [1] read?
The value was “no significant treatment-related changes or abnormalities”.

And the “non-TIMI bleeding: Arterial Access, patients (%)” value ([2]; 10 mg loading dose)?
The value was 11%.

And the “non-TIMI bleeding: Contusion/Bruise, patients (%)” value ([2]; 10 mg loading dose)?
The value was 10%.

And the “non-TIMI bleeding: Expistaxis, patients (%)” value ([2]; 10 mg loading dose)?
The value was 6%.

And the “non-TIMI bleeding: GI, patients (%)” value ([2]; 10 mg loading dose)?
The value was 2 (2%).

What about the “non-TIMI bleeding: Genitourinary, patients (%)” value ([2]; 10 mg loading dose) of the same compound?
The value was 3%.

What about the “non-TIMI bleeding: Gingival, patients (%)” value ([2]; 10 mg loading dose) of the same compound?
Its value is 2 (2%).

What about the “non-TIMI bleeding: Incidental Cuts, patients (%)” value ([2]; 10 mg loading dose) of the same compound?
Its value is 4%.

What about the “non-TIMI bleeding: Vascular Puncture, patients (%)” value ([2]; 10 mg loading dose) of the same compound?
The value was 12%.

What about the “non-TIMI bleeding: Arterial Access, patients (%)” value ([2]; 20 mg loading dose) of the same compound?
Its value is 17%.

What about the “non-TIMI bleeding: Contusion/Bruise, patients (%)” value ([2]; 20 mg loading dose) of the same compound?
Its value is 17%.

And the “non-TIMI bleeding: Expistaxis, patients (%)” value ([2]; 20 mg loading dose)?
The value was 5%.

And the “non-TIMI bleeding: GI, patients (%)” value ([2]; 20 mg loading dose)?
The value was 1 (1%).

And the “non-TIMI bleeding: Genitourinary, patients (%)” value ([2]; 20 mg loading dose)?
Its value is 5%.

And the “non-TIMI bleeding: Gingival, patients (%)” value ([2]; 20 mg loading dose)?
The value was 1 (1%).

What about the “non-TIMI bleeding: Incidental Cuts, patients (%)” value ([2]; 20 mg loading dose) of the same compound?
Its value is 13%.

What about the “non-TIMI bleeding: Vascular Puncture, patients (%)” value ([2]; 20 mg loading dose) of the same compound?
The value was 18%.

What about the “non-TIMI bleeding: Arterial Access, patients (%)” value ([2]; 40 mg loading dose) of the same compound?
The value was 14%.

And the “non-TIMI bleeding: Contusion/Bruise, patients (%)” value ([2]; 40 mg loading dose)?
Its value is 18%.

And the “non-TIMI bleeding: Expistaxis, patients (%)” value ([2]; 40 mg loading dose)?
Its value is 5%.

And the “non-TIMI bleeding: GI, patients (%)” value ([2]; 40 mg loading dose)?
The value was 3%.

And the “non-TIMI bleeding: Genitourinary, patients (%)” value ([2]; 40 mg loading dose)?
Its value is 2%.

What about the “non-TIMI bleeding: Gingival, patients (%)” value ([2]; 40 mg loading dose) of the same compound?
The value was 1%.

And the “non-TIMI bleeding: Incidental Cuts, patients (%)” value ([2]; 40 mg loading dose)?
The value was 10%.

What about the “non-TIMI bleeding: Vascular Puncture, patients (%)” value ([2]; 40 mg loading dose) of the same compound?
Its value is 15%.

And the “non-TIMI bleeding: Arterial Access, patients (%)” value ([2]; All SCH 530348)?
Its value is 14%.

What about the “non-TIMI bleeding: Contusion/Bruise, patients (%)” value ([2]; All SCH 530348) of the same compound?
Its value is 15%.

What about the “non-TIMI bleeding: Expistaxis, patients (%)” value ([2]; All SCH 530348) of the same compound?
Its value is 5%.

And the “non-TIMI bleeding: GI, patients (%)” value ([2]; All SCH 530348)?
The value was 2%.

And the “non-TIMI bleeding: Genitourinary, patients (%)” value ([2]; All SCH 530348)?
Its value is 3%.

And the “non-TIMI bleeding: Gingival, patients (%)” value ([2]; All SCH 530348)?
The value was 1%.

What about the “non-TIMI bleeding: Incidental Cuts, patients (%)” value ([2]; All SCH 530348) of the same compound?
Its value is 9%.

And the “non-TIMI bleeding: Vascular Puncture, patients (%)” value ([2]; All SCH 530348)?
Its value is 15%.

What about the “Any bleed, patients (%)” value ([2]; 10 mg loading dose) of the same compound?
Its value is 37%.

What about the “TIMI Major bleeding, patients (%)” value ([2]; 10 mg loading dose) of the same compound?
The value was 1.6%.

What about the “TIMI Major/Minor bleeding, patients (%)” value ([2]; 10 mg loading dose) of the same compound?
Its value is 1.6%.

What about the “non-TIMI bleeding (overall), patients (%)” value ([2]; 10 mg loading dose) of the same compound?
The value was 36%.

What about the “Any bleed, patients (%)” value ([2]; 20 mg loading dose) of the same compound?
Its value is 43%.

And the “TIMI Major/Minor bleeding, patients (%)” value ([2]; 20 mg loading dose)?
The value was 2.5%.

What about the “TIMI Minor bleeding, patients (%)” value ([2]; 20 mg loading dose) of the same compound?
The value was 2.5%.

What about the “non-TIMI bleeding (overall), patients (%)” value ([2]; 20 mg loading dose) of the same compound?
Its value is 43%.

What about the “Any bleed, patients (%)” value ([2]; 40 mg loading dose) of the same compound?
Its value is 45%.

What about the “TIMI Major bleeding, patients (%)” value ([2]; 40 mg loading dose) of the same compound?
Its value is 0.6%.

And the “TIMI Major/Minor bleeding, patients (%)” value ([2]; 40 mg loading dose)?
The value was 4.0%.

And the “TIMI Minor bleeding, patients (%)” value ([2]; 40 mg loading dose)?
The value was 3.4%.

What about the “non-TIMI bleeding (overall), patients (%)” value ([2]; 40 mg loading dose) of the same compound?
Its value is 42% and 43%.

And the “Any bleed, patients (%)” value ([2]; All SCH 530348)?
The value was 42%.

What about the “TIMI Major bleeding, patients (%)” value ([2]; All SCH 530348) of the same compound?
The value was 0.7%.

What about the “TIMI Minor bleeding, patients (%)” value ([2]; All SCH 530348) of the same compound?
The value was 2.1%.

And the “non-TIMI bleeding (overall), patients (%)” value ([2]; All SCH 530348)?
Its value is 41% and 40%.

And the “TIMI Major/Minor bleeding, patients (%)” value ([2]; All SCH 530348, primary safety endpoint)?
The value was 2.8%.

And the Surgical blood loss [3]?
The Surgical blood loss was 0.18 mL/h.

What about the Surgical blood loss ([3]; listed as Group II) of the same compound?
Its Surgical blood loss is 0.18 ± 0.03 mL/h.

And the “Effect on arachidonic acid (AA)-induced platelet aggregation” value (platelets)?
Its value is “no effect”.
